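Assay format: 96-well plates, 48-hour exposure. Abbreviation: GI50, concentration required for 50% inhibition of growth.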 Active and inactive are the calls of the source. Cut-off read from the data, not from the text of the source: active = GI50 up to about 1.1 µM and inactive = higher.
Key:
Experiment in all cases: NCI-60 cell line screen, 48 h
HT-29 = test system: HT-29
SK-MEL-5 = test system: SK-MEL-5
COLO 205 = test system: COLO 205
OVCAR-3 = test system: OVCAR-3
NCI-H460 = test system: NCI-H460
UACC-257 = test system: UACC-257
ACHN = test system: ACHN
SNB-19 = test system: SNB-19
SW-620 = test system: SW-620
HOP-18 = test system: HOP-18
IGROV-1 = test system: IGROV-1
SN12C = test system: SN12C
HCT-15 = test system: HCT-15
DLD-1 = test system: DLD-1
RXF 631 = test system: RXF 631
KM12 = test system: KM12
UACC-62 = test system: UACC-62
OVCAR-5 = test system: OVCAR-5
RPMI-8226 = test system: RPMI-8226
A549 = test system: A549
NCI-H226 = test system: NCI-H226
K562 = test system: K562
OVCAR-4 = test system: OVCAR-4
M19-MEL = test system: M19-MEL
HOP-92 = test system: HOP-92
UO-31 = test system: UO-31
SK-OV-3 = test system: SK-OV-3
HCT-116 = test system: HCT-116
NCI-H23 = test system: NCI-H23
OVCAR-8 = test system: OVCAR-8
NCI-H522 = test system: NCI-H522
KM-20L2 = test system: KM-20L2
SK-MEL-28 = test system: SK-MEL-28
SNB-75 = test system: SNB-75
M14 = test system: M14
HL-60 = test system: HL-60
MOLT-4 = test system: MOLT-4
TK-10 = test system: TK-10
LXFL 529 = test system: LXFL 529
CCRF-CEM = test system: CCRF-CEM
SF-539 = test system: SF-539
EKVX = test system: EKVX
SF-268 = test system: SF-268
SF-295 = test system: SF-295
LOX IMVI = test system: LOX IMVI
DMS-273 = test system: DMS-273
RXF 393 = test system: RXF 393
XF498 = test system: XF498
CAKI-1 = test system: CAKI-1
DMS-114 = test system: DMS-114
SNB-78 = test system: SNB-78
A498 = test system: A498
U-251 = test system: U-251

SMILES: CC(=O)N/C(=C\c1ccc(/C=C(\NC(C)=O)C2=NC3C(=O)c4ccccc4C(=O)C3N2)cc1)C1=NC2C(=O)c3ccccc3C(=O)C2N1 (stereo not drawn)
- GI50 (HT-29): > 100 µM (inactive)
- GI50 (SK-MEL-5): 3.4 µM (inactive)
- GI50 (COLO 205): 93.1 µM (inactive)
- GI50 (OVCAR-3): 49.3 µM (inactive)
- GI50 (NCI-H460): 12.8 µM (inactive)
- GI50 (UACC-257): > 100 µM (inactive)
- GI50 (ACHN): 4.1 µM (inactive)
- GI50 (SNB-19): 19 µM (inactive)
- GI50 (SW-620): 1.84 µM (inactive)
- GI50 (HOP-18): 71.3 µM (inactive)
- GI50 (IGROV-1): 8.47 µM (inactive)
- GI50 (SN12C): 22.6 µM (inactive)
- GI50 (HCT-15): 9.14 µM
- GI50 (DLD-1): 7.71 µM (inactive)
- GI50 (RXF 631): 19.7 µM (inactive)
- GI50 (KM12): 3.63 µM (inactive)
- GI50 (UACC-62): 25.8 µM (inactive)
- GI50 (OVCAR-5): 75 µM (inactive)
- GI50 (RPMI-8226): 5.05 µM (inactive)
- GI50 (A549): 2.34 µM (inactive)
- GI50 (NCI-H226): 15.4 µM (inactive)
- GI50 (K562): 19.3 µM (inactive)
- GI50 (OVCAR-4): > 100 µM (inactive)
- GI50 (M19-MEL): 92.3 µM (inactive)
- GI50 (HOP-92): 30.8 µM (inactive)
- GI50 (UO-31): 2.97 µM (inactive)
- GI50 (SK-OV-3): 6.53 µM (inactive)
- GI50 (HCT-116): 14.4 µM (inactive)
- GI50 (NCI-H23): 26.7 µM (inactive)
- GI50 (OVCAR-8): 22.4 µM (inactive)
- GI50 (NCI-H522): 7.69 µM (inactive)
- GI50 (KM-20L2): 39.7 µM (inactive)
- GI50 (SK-MEL-28): > 100 µM (inactive)
- GI50 (SNB-75): 6.98 µM (inactive)
- GI50 (M14): 49.8 µM (inactive)
- GI50 (HL-60): 3.96 µM (inactive)
- GI50 (MOLT-4): 2.44 µM (inactive)
- GI50 (TK-10): 12.1 µM (inactive)
- GI50 (LXFL 529): 42.4 µM (inactive)
- GI50 (CCRF-CEM): 865 nM (active)
- GI50 (SF-539): 76.7 µM (inactive)
- GI50 (EKVX): 15.6 µM (inactive)
- GI50 (SF-268): 5.7 µM (inactive)
- GI50 (SF-295): 68.2 µM (inactive)
- GI50 (LOX IMVI): 6.92 µM (inactive)
- GI50 (DMS-273): 19.6 µM (inactive)
- GI50 (RXF 393): 13.2 µM (inactive)
- GI50 (XF498): > 100 µM (inactive)
- GI50 (CAKI-1): 3.27 µM (inactive)
- GI50 (DMS-114): 8 µM (inactive)
- GI50 (SNB-78): 70.3 µM (inactive)
- GI50 (A498): 5.57 µM (inactive)
- GI50 (U-251): 9.98 µM (inactive)

From ChEMBL document CHEMBL1201862, “PubChem BioAssay data set” (2004)
